This is an account of results in US8747882B2, “Catheter assembly with bactericidal effect” (Astra Tech AB, priority 2005, dated 2014).

A value given as a limit tells only on which side of the number the result lay.

The test system of this assay is Escherichia coli. The assay is described as follows: MIC (Minimum Inhibitory Concentration) test, bacterial growth inhibition in synthetic urine (Bioscreen optical density). The format is cell-based. The following applies: mixed 1+3 with synthetic urine. How it is done:
Experimental tests were conducted in order to verify the above-discussed results. In the experiments, solutions were prepared and sterilized by radiation (E-beam) or heat (autoclave). […] Further, some of the solutions were buffered to a predetermined pH-value with a citrate buffer (a buffer-system consisting of sodium citrates). All solutions were mixed with three volumetric parts synthetic urine in the experiments. Synthetic urine supports bacterial growth and were used as growth medium as well as negative control reference in the experiments. All experiments were made on the bacteria Escherichia coli, since the E. coli bacteria is normally the most relevant bacteria to inhibit for urinary catheter products. MIC (Minimum Inhibitory Concentration) tests were performed to assess the potential of a given substance and concentration to inhibit bacterial growth. The solutions were added to a growth solution containing a specified number of bacteria. The bacteria were then grown in microtiter-wells at 37 deg. C. in a Bioscreen-instrument for a period of at least 40 hours. The bacterial growth/inhibition was monitored in terms of optical density for the solution. Since all microorganisms increase the optical density of a solution during growth and multiplication, the Bioscreen measure of the transmittance/absorbance of light through the sample is correlated to the concentration of microorganisms. The results of the measurements of the different solutions are compared to a negative control reference, i.e. to synthetic urine, for each set of experiments.

[1] abbreviates: 0.1% w/w, 850 mOsm, pH 6.5, no buffer.
Setting [2] is: 0.3% w/w, 850 mOsm, pH 6.5, no buffer.
Setting [3] is: 1.0% w/w, 850 mOsm, pH 6.5, no buffer.

Take `C/C=C/C=C/C(=O)[O-].[K+]` [KS, Potassium Sorbate]: the “Result (index): inhibition time relative to synthetic urine” value reads like this: (0.05% w/w, 860 mOsm, pH 5.6, citrate buffer) 1.8 index; (0.05% w/w, 860 mOsm, pH 5.9, citrate buffer) 1.7 index; (0.05% w/w, 860 mOsm, pH 6.5, no buffer) 1.2 index; (0.05% w/w, 870 mOsm, pH 5.0, citrate buffer) greater than 8.0 index; under setting [1], 3.8 index; under setting [2], 5.0 index. For the same molecule, the “Result (index): inhibition time relative to synthetic urine” value under setting [3] worked out at 5.3 index.

As for `O=C([O-])c1ccccc1.[Na+]` [NaB, Sodium Benzoate], the “Result (index): inhibition time relative to synthetic urine” value is, setting by setting: under setting [1], 2.3 index; (0.25% w/w, 860 mOsm, pH 5.0, citrate buffer) greater than 8.0 index; (0.25% w/w, 860 mOsm, pH 5.6, citrate buffer) greater than 8.0 index; (0.25% w/w, 860 mOsm, pH 5.9, citrate buffer) greater than 8.0 index; (0.25% w/w, 860 mOsm, pH 6.5, no buffer) 4.0 index; under setting [2], 4.0 index. The “Result (index): inhibition time relative to synthetic urine” value under setting [3] came to 5.3 index.

With `[Cl-].[Na+]` [NaCl, sodium chloride, reference compound], the “Result (index): inhibition time relative to synthetic urine” value runs as follows: (0.9% w/w, 900 mOsm, pH 6.5, no buffer) 1.0 index; (3.0% w/w, 1700 mOsm, pH 6.5, no buffer) 1.5 index.
